In the supplement of paper PMC10307832:

Experiments:
Assay in all cases: relative viability (nuclei count vs DMSO), 5 days (fraction); higher = more cells survive
Decitabine + Lapatinib = compound: Nc1ncn([C@H]2C[C@H](O)[C@@H](CO)O2)c(=O)n1 [Decitabine] + CS(=O)(=O)CCNCc1ccc(-c2ccc3ncnc(Nc4ccc(OCc5cccc(F)c5)c(Cl)c4)c3c2)o1 [Lapatinib] (partner 2 µM)
Method in brief: (§1)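 For relative viability, nuclei counts in treated wells were divided by those in vehicle wells. Lung cancer cell lines had been pin-tool dosed in 1536-well plates the day after seeding and cultured for 5 days, then fixed and stained in one step (final 0.05% Triton X-100, 1% formaldehyde, 1 ug/ml Hoechst) and imaged at 4×. Doses were one drug alone or a fixed anchor-drug dose plus five library-drug doses (not always all listed) in √10 steps, and values are duplicate-plate medians.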

[1] = compound: O=C(C[C@H]1NCCC[C@@H]1O)Cn1cnc2cc(Br)c(Cl)cc2c1=O (racemic) [Halofuginone] + N=C(N)NC(=N)NCCc1ccccc1 [Phenformin] (partner 250 µM)
Method in brief: as §1

Cediranib + Olaparib = compound: COc1cc2c(Oc3ccc4[nH]c(C)cc4c3F)ncnc2cc1OCCCN1CCCC1 [Cediranib] + O=C(c1cc(Cc2n[nH]c(=O)c3ccccc23)ccc1F)N1CCN(C(=O)C2CC2)CC1 [Olaparib] (partner 8 µM)
Method in brief: as §1

Cediranib + Lapatinib = compound: COc1cc2c(Oc3ccc4[nH]c(C)cc4c3F)ncnc2cc1OCCCN1CCCC1 [Cediranib] + CS(=O)(=O)CCNCc1ccc(-c2ccc3ncnc(Nc4ccc(OCc5cccc(F)c5)c(Cl)c4)c3c2)o1 [Lapatinib] (partner 2 µM)
Method in brief: as §1

| Cell Line | relative viability (Decitabine + Lapatinib; first compound 0.04 µM) | relative viability (Decitabine + Lapatinib; first compound 0.1265 µM) | relative viability (Decitabine + Lapatinib; first compound 0.4 µM) | relative viability (Decitabine + Lapatinib; first compound 1.265 µM) | relative viability (Decitabine + Lapatinib; first compound 4 µM) | relative viability ([1]; first compound 0.001 µM) | relative viability ([1]; first compound 0.003162 µM) | relative viability ([1]; first compound 0.01 µM) | relative viability ([1]; first compound 0.03162 µM) | relative viability ([1]; first compound 0.1 µM) | relative viability (Cediranib + Olaparib; first compound 0.04 µM) | relative viability (Cediranib + Olaparib; first compound 0.1265 µM) | relative viability (Cediranib + Olaparib; first compound 0.4 µM) | relative viability (Cediranib + Olaparib; first compound 1.265 µM) | relative viability (Cediranib + Olaparib; first compound 4 µM) | relative viability (Cediranib + Lapatinib; first compound 0.04 µM) | relative viability (Cediranib + Lapatinib; first compound 0.1265 µM) | relative viability (Cediranib + Lapatinib; first compound 0.4 µM) | relative viability (Cediranib + Lapatinib; first compound 1.265 µM) | relative viability (Cediranib + Lapatinib; first compound 4 µM) |
| --- | --- | --- | --- | --- | --- | --- | --- | --- | --- | --- | --- | --- | --- | --- | --- | --- | --- | --- | --- | --- |
| NCI-H1651 | 0.799 | 0.977 | 0.708 | 0.676 | 0.747 | 0.377 | 0.34 | 0.333 | 0.35 | 0.276 | 0.189 | 0.18 | 0.179 | 0.166 | 0.185 | 0.819 | 0.919 | 0.825 | 0.668 | 0.855 |
| ABC-1 | 1.27 | 1.26 | 1.16 | 0.861 | 0.981 | 0.27 | 0.223 | 0.24 | 0.234 | 0.209 | 0.875 | 0.997 | 0.823 | 1.14 | 0.726 | 1.24 | 1.39 | 1.14 | 1.06 | 1.24 |
| NCI-H2126 | 0.749 | 0.781 | 0.472 | 0.564 | 0.544 | 0.538 | 0.56 | 0.511 | 0.512 | 0.488 | 0.944 | 0.92 | 0.912 | 0.802 | 0.957 | 0.749 | 0.595 | 0.715 | 0.55 | 0.741 |
| RERF-LC-KJ | 0.804 | 0.894 | 0.704 | 0.717 | 0.656 | 0.447 | 0.436 | 0.381 | 0.416 | 0.423 | 0.841 | 0.866 | 0.915 | 0.998 | 0.979 | 0.94 | 0.751 | 0.783 | 0.836 | 0.954 |
| NCI-H1666 | 0.622 | 0.66 | 0.488 | 0.56 | 0.476 | 0.587 | 0.612 | 0.562 | 0.56 | 0.475 | 0.737 | 0.716 | 0.719 | 0.696 | 0.726 | 0.678 | 0.339 | 0.554 | 0.541 | 0.69 |
| PC-14 |  | 0.297 | 0.196 | 0.226 | 0.228 | 0.563 | 0.553 | 0.565 | 0.606 | 0.281 | 0.348 | 0.23 | 0.261 | 0.258 | 0.377 | 0.308 | 0.461 | 0.297 | 0.301 | 0.404 |
| NCI-H1915 | 0.608 | 0.33 | 0.257 | 0.189 | 0.219 | 0.361 | 0.386 | 0.366 | 0.339 | 0.355 | 0.246 | 0.251 | 0.263 | 0.289 | 0.249 | 1.01 | 0.731 | 0.924 | 0.969 | 0.983 |
| NCI-H661 | 0.465 | 0.455 | 0.382 | 0.297 | 0.269 | 0.296 | 0.298 | 0.295 | 0.274 | 0.284 | 0.763 | 0.785 | 0.713 | 0.703 | 0.817 | 0.552 | 0.738 | 0.403 | 0.494 | 0.544 |
| SK-MES-1 | 0.463 | 0.49 | 0.406 | 0.383 | 0.286 | 0.657 | 0.717 | 0.621 | 0.556 | 0.228 | 0.728 | 0.73 | 0.642 | 0.685 | 0.899 | 0.471 | 0.502 | 0.441 | 0.514 | 0.473 |
| NCI-H1944 | 0.807 | 0.819 | 0.526 | 0.428 | 0.416 | 0.179 | 0.225 | 0.208 | 0.218 | 0.172 | 0.391 | 0.394 | 0.395 | 0.407 | 0.376 | 0.969 | 0.8 | 0.78 | 0.705 | 0.908 |
| HCC-78 | 0.819 | 0.862 | 0.46 | 0.411 | 0.388 | 0.7 | 0.667 | 0.697 | 0.739 | 0.623 | 0.963 | 1.01 | 0.83 | 0.96 | 1.04 | 1 | 0.703 | 0.634 | 0.662 | 0.695 |
| PC-3 [JPC-3] |  | 0.467 | 0.269 | 0.421 | 0.383 | 0.501 | 0.453 | 0.456 | 0.473 | 0.443 | 1.23 |  | 1.09 | 1.21 | 0.834 | 0.479 | 0.554 | 0.472 | 0.391 | 0.45 |
| EKVX | 0.211 | 0.2 | 0.213 | 0.184 | 0.163 | 0.236 | 0.241 | 0.232 | 0.226 | 0.199 | 0.783 | 0.949 | 0.803 |  | 0.851 | 0.19 | 0.23 | 0.196 | 0.227 | 0.203 |
| NCI-H460 | 0.902 | 1.06 | 0.277 | 0.18 | 0.114 | 0.512 | 0.549 | 0.543 | 0.493 | 0.126 | 0.53 | 0.411 | 0.403 | 0.424 | 0.362 | 1.05 | 1.01 | 0.905 | 1 | 0.639 |
| NCI-H2170 | 0.281 | 0.267 | 0.268 | 0.251 | 0.249 | 0.412 | 0.416 | 0.411 | 0.392 | 0.434 | 0.575 |  | 0.533 | 0.598 | 0.726 | 0.295 | 0.277 | 0.243 | 0.232 | 0.268 |
| NCI-H727 | 0.709 | 0.659 | 0.483 | 0.447 | 0.433 | 0.784 | 0.577 | 0.422 | 0.628 | 0.317 | 0.656 | 0.679 | 0.684 | 0.728 | 0.73 | 0.774 | 0.483 | 0.733 | 0.919 | 0.732 |
| NCI-H838 | 0.566 | 0.549 | 0.226 | 0.307 | 0.205 | 0.668 | 0.713 | 0.525 | 0.347 | 0.199 | 0.786 | 0.764 | 0.734 | 0.722 | 0.756 | 1.02 | 0.796 | 0.914 | 0.737 | 1.11 |
| NCI-H1792 | 0.851 | 0.94 | 0.806 | 0.564 | 0.53 | 0.233 | 0.29 | 0.256 | 0.223 | 0.184 |  | 0.713 | 0.321 | 0.435 | 0.557 | 0.792 | 0.628 | 0.863 | 0.875 | 0.735 |
| H3255 | 0.226 | 0.193 | 0.201 | 0.164 | 0.205 | 0.399 | 0.372 | 0.293 | 0.401 | 0.369 | 0.524 | 0.503 | 0.564 | 0.643 | 0.542 | 0.272 | 0.228 | 0.271 | 0.246 | 0.254 |
| EPLC-272H | 0.749 | 0.777 |  | 0.543 | 0.518 | 0.314 | 0.267 | 0.311 | 0.312 | 0.286 | 0.896 | 0.831 | 0.8 | 0.964 | 0.688 | 0.834 |  | 0.862 | 0.77 | 0.671 |
| NCI-H647 | 0.756 | 0.77 | 0.537 | 0.271 | 0.194 | 0.659 | 0.642 | 0.544 | 0.368 | 0.195 | 0.772 | 0.652 | 0.501 | 0.551 | 0.437 | 1.46 | 1.19 | 1.08 | 1.02 | 1.19 |
| LXF-289 | 0.809 | 0.733 | 0.484 | 0.402 | 0.354 | 0.533 | 0.519 | 0.498 | 0.508 | 0.507 | 1.09 |  | 1.03 | 1 | 1.15 | 0.988 | 0.816 | 0.852 | 0.958 | 0.846 |
| NCI-H1650 | 0.595 | 0.649 | 0.217 | 0.494 | 0.372 | 0.495 | 0.467 | 0.413 | 0.442 | 0.188 | 0.825 | 0.801 | 0.771 | 0.707 | 0.845 | 0.955 | 0.183 | 0.802 | 0.776 | 0.665 |
| NCI-H1755 | 1.02 | 0.991 | 0.836 | 0.573 | 0.481 | 0.636 | 0.629 | 0.617 | 0.665 | 0.615 | 0.918 | 0.791 | 0.867 | 0.836 | 0.955 | 1.14 | 0.778 | 1.01 | 1.05 | 0.941 |
| HCC-15 | 0.634 | 0.778 | 0.223 | 0.345 | 0.366 | 0.471 | 0.534 | 0.46 | 0.467 | 0.429 | 0.706 |  | 0.705 | 0.759 | 0.759 | 0.898 |  | 0.806 | 1.01 | 0.897 |
| EMC-BAC-2 | 0.926 | 0.989 | 0.556 | 0.67 | 0.586 | 0.615 | 0.546 | 0.503 | 0.521 | 0.338 | 0.474 |  | 0.476 | 0.502 | 0.402 | 0.925 | 0.804 | 0.88 | 0.816 | 0.868 |
| NCI-H1734 | 0.727 | 0.91 | 0.635 | 0.449 | 0.38 | 0.369 | 0.436 | 0.427 | 0.408 | 0.369 | 0.683 | 0.623 | 0.59 | 0.676 | 0.764 | 0.913 | 0.989 | 1.07 | 0.826 | 1.21 |
